Target: T1, L. helveticus PDT (Lactobacillus helveticus, UniProt Q8RLY5)
T1 construct: gene ptd; recombinant in E. coli BL21(DE3)pLysS from pETLH4; ammonium sulfate and Sephacryl S-200, no tag mentioned; C-terminal residue Tyr167; active site shared with adjacent monomer; 3 monomers per ASU
Experiment: X-ray crystallography, […] Å, soaked crystals
Type: binding
Conditions: soak up to 6 mM; active site, four overlapping orientations; also deoxyribosylated at N1 and N7 with dGuo donor

T1 sequence (Q8RLY5 entry or part of it): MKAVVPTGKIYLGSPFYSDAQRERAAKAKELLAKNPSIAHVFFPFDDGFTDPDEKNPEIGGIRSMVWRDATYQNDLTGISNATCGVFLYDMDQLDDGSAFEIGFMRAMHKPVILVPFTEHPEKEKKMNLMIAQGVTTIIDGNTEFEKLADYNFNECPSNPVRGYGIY

SMILES: O=c1[nH]c2nccn2c2nc[nH]c12 [compound 1, 8,9-dihydro-9-oxoimidazo[2,1-b]purine]
- X-ray crystallography, 2.1 Å, soaked crystals: the substrate binds in at least four different, overlapping orientations
